ChEMBL document CHEMBL4354803, “Synthesis and biological activity of structurally diverse phthalazine derivatives: A systematic review” (Bioorg Med Chem, 2019)

Test system: Mus musculus
Experiment: Anticonvulsant activity in ip dosed Kunming mouse assessed as protection against 50 mA current-induced seizure measured after 0.5 hrs by maximal electroshock seizure test
Assay type: functional

## FC(F)(F)c1cccc(COc2nn3cnnc3c3ccccc23)c1
  ED50: 9.3 mg/kg
